Tested on: Subjects With Active Crohn's Disease
Assay: LDL determination, Study 5 (Crohn's disease)
Type: in vivo, human
Settings: for [LDL] Mean CFB - 10 weeks results / [LDL] Median CFB - 10 weeks results / [LDL] Mean CFB: 200 mg q.d.; for [LDL] Mean CFB: Study 5 10 weeks results
Description: Double-Blind, Randomized, Placebo-Controlled, Multi-Centre Study to Investigate the Efficacy and Safety of Compound 1 in Subjects With Active Crohn's Disease With Evidence of Mucosal Ulceration.
This is a double-blind, randomized, placebo-controlled, multi-centre Phase 2 study to investigate the efficacy and safety of Compound 1 administered once daily for the treatment of active CD with evidence of mucosal ulceration. The pharmacokinetics (including a PK substudy) and pharmacodynamics of Compound 1 and metabolite in CD will also be characterised.
A total of 180 eligible subjects will be randomized to receive Compound 1 or placebo in addition to their stable background treatment (eg, corticosteroids, aminosalicylates, or CD-related antibiotics). The study will consist of 2 parts, with total treatment duration of 20 weeks. Randomization in Part 1 will be stratified according the subject's previous anti-TNF exposure/response, CRP level at Screening, and oral corticosteroid use at visit Day −1.
After the first 10 weeks of treatment in Part 1, patients will be re-randomized for Part 2 as shown in the diagram below and will be stratified according to the subject's clinical response, previous anti-TNF exposure/response, and oral corticosteroid use at visit Day −1.
The following assays were conducted at Eurofins Global Central Laboratory, Bergschot 71, 4817 PA Breda, The Netherlands, and at Quest Diagnostics, Clinical Trials, Quest House, 125-135 Staines Road, Hounslow, Middlesex, TW3 3JB, United Kingdom. The assays for Study 5 were performed at BARC Europe, 3B, Industrie Park, Zwijnaarde, B-9052 Ghent, Belgium.
The determination of [LDL]-cholesterol is made using an automated method taking advantage of the selective micellary solubilization of [LDL]-cholesterol by a nonionic detergent and the interaction of a sugar compound and lipoproteins (VLDL and chylomicrons).
When a detergent is included in the enzymatic method for cholesterol determination (cholesterol esterase, cholesterol oxidase coupling reaction), the relative reactivities of cholesterol in the lipoprotein fractions increase in this order: [HDL]<chylomicrons <VLDL <[LDL]. In the presence of Mg^2+, a sugar compound markedly reduces the enzymatic reaction of the cholesterol measurement in VLDL and chylomicrons. The combination of a sugar compound with detergent enables the selective determination of [LDL]-cholesterol in serum. (Friedewald et al., 1972; Rifai et al., 1992)
Homogeneous enzymatic colorimetric assay.
In the presence of peroxidase, the hydrogen peroxide generated reacts with 4-aminoantipyrine and Sodium N-(2-hydroxy-3-sulfopropyl)-3,5-dimethoxyaniline (HSDA) to form a purple-blue dye.
The color intensity of this dye is directly proportional to the cholesterol concentration and is measured photometrically.
Human serum and plasma samples [LDL] determination was done on a Roche/Hitachi Cobas c 701/702 system which automatically calculate the analyte concentration of each sample. Samples containing precipitates are centrifuged before performing the assay.

[1] = 200 mg q.d. week 0 to 10, to 100 mg q.d. week 10 to 20, week 16
[2] = 200 mg q.d. week 0 to 10, to 100 mg q.d. week 10 to 20, week 20
[3] = 200 mg q.d. week 0 to 10, to placebo week 10 to 20, week 2
[4] = 200 mg q.d. week 0 to 10, to placebo week 10 to 20, week 4
[5] = 200 mg q.d. week 0 to 10, to placebo week 10 to 20, week 6
[6] = 200 mg q.d. week 0 to 10, to placebo week 10 to 20, week 10
[7] = 200 mg q.d. week 0 to 10, to placebo week 10 to 20, week 12
[8] = 200 mg q.d. week 0 to 10, to placebo week 10 to 20, week 16
[9] = 200 mg q.d. week 0 to 10, to placebo week 10 to 20, week 20
[10] = continued 200 mg q.d. (N = 77), week 2
[11] = continued 200 mg q.d. (N = 77), week 4
[12] = continued 200 mg q.d. (N = 77), week 6
[13] = continued 200 mg q.d. (N = 77), week 10
[14] = continued 200 mg q.d. (N = 77), week 12
[15] = continued 200 mg q.d. (N = 77), week 16
[16] = continued 200 mg q.d. (N = 77), week 20
[17] = placebo week 0 to 10, then 100 mg q.d. (N = 22), week 12
[18] = placebo week 0 to 10, then 100 mg q.d. (N = 22), week 16
[19] = placebo week 0 to 10, then 100 mg q.d. (N = 22), week 20
[20] = placebo week 0 to 10, to 100 mg q.d. week 10 to 20, week 12
[21] = placebo week 0 to 10, to 100 mg q.d. week 10 to 20, week 16
[22] = placebo week 0 to 10, to 100 mg q.d. week 10 to 20, week 20

## O=C(Nc1nc2cccc(-c3ccc(CN4CCS(=O)(=O)CC4)cc3)n2n1)C1CC1 [Compound 1, cyclopropanecarboxylic acid {5-[4-(1,1-dioxo-thiomorpholin-4-ylmethyl)-phenyl]-[1,2,4]triazolo[1,5-a]pyridin-2yl}-amide]
[1]
  [LDL] Mean CFB - 20 weeks results: 2.18%
  [LDL] Median CFB - 20 weeks results: −1.36%
[2]
  [LDL] Mean CFB - 20 weeks results: 2.73%
  [LDL] Median CFB - 20 weeks results: 1.65%
[3]
  [LDL] Mean CFB - 20 weeks results: 2.69%
  [LDL] Median CFB - 20 weeks results: 0.71%
[4]
  [LDL] Mean CFB - 20 weeks results: 1.85%
  [LDL] Median CFB - 20 weeks results: 2.44%
[5]
  [LDL] Mean CFB - 20 weeks results: 3.72%
  [LDL] Median CFB - 20 weeks results: 3.51%
[6]
  [LDL] Mean CFB - 20 weeks results: 4.43%
  [LDL] Median CFB - 20 weeks results: 1.84%
[7]
  [LDL] Mean CFB - 20 weeks results: 4.55%
  [LDL] Median CFB - 20 weeks results: 6.33%
[8]
  [LDL] Mean CFB - 20 weeks results: 10.32%
  [LDL] Median CFB - 20 weeks results: 6.34%
[9]
  [LDL] Mean CFB - 20 weeks results: 6.12%
  [LDL] Median CFB - 20 weeks results: 5.24%
Week 2
  [LDL] Mean CFB - 10 weeks results: 2.833%
  [LDL] Median CFB - 10 weeks results: −1.469%
  [LDL] Mean CFB: 0.025 mmol/L
Week 4
  [LDL] Mean CFB - 10 weeks results: 1.997%
  [LDL] Median CFB - 10 weeks results: −1.986%
  [LDL] Mean CFB: -0.030 mmol/L
Week 6
  [LDL] Mean CFB - 10 weeks results: 1.743%
  [LDL] Median CFB - 10 weeks results: 0.992%
  [LDL] Mean CFB: -0.012 mmol/L
Week 10
  [LDL] Mean CFB - 10 weeks results: 10.126%
  [LDL] Median CFB - 10 weeks results: 6.299%
  [LDL] Mean CFB: 0.150 mmol/L
[10]
  [LDL] Mean CFB - 20 weeks results: 0.04 mmol/L
  [LDL] Median CFB - 10 weeks results 20 weeks results: -0.05 mmol/L
[11]
  [LDL] Mean CFB - 20 weeks results: -0.05 mmol/L
  [LDL] Median CFB - 10 weeks results 20 weeks results: -0.05 mmol/L
[12]
  [LDL] Mean CFB - 20 weeks results: -0.05 mmol/L
  [LDL] Median CFB - 10 weeks results 20 weeks results: -0.02 mmol/L
[13]
  [LDL] Mean CFB - 20 weeks results: 0.20 mmol/L
  [LDL] Median CFB - 10 weeks results 20 weeks results: 0.18 mmol/L
[14]
  [LDL] Mean CFB - 20 weeks results: 0.14 mmol/L
  [LDL] Median CFB - 10 weeks results 20 weeks results: 0.15 mmol/L
[15]
  [LDL] Mean CFB - 20 weeks results: 0.21 mmol/L
  [LDL] Median CFB - 10 weeks results 20 weeks results: 0.19 mmol/L
[16]
  [LDL] Mean CFB - 20 weeks results: 0.22 mmol/L
  [LDL] Median CFB - 10 weeks results 20 weeks results: 0.18 mmol/L
[17]
  [LDL] Mean CFB - 20 weeks results: 0.09 mmol/L
  [LDL] Median CFB - 10 weeks results 20 weeks results: 0.07 mmol/L
[18]
  [LDL] Mean CFB - 20 weeks results: 0.05 mmol/L
  [LDL] Median CFB - 10 weeks results 20 weeks results: -0.06 mmol/L
[19]
  [LDL] Mean CFB - 20 weeks results: 0.06 mmol/L
  [LDL] Median CFB - 10 weeks results 20 weeks results: 0.03 mmol/L
[20]
  [LDL] Mean CFB - 20 weeks results: 4.07%
  [LDL] Median CFB - 20 weeks results: 2.14%
[21]
  [LDL] Mean CFB - 20 weeks results: 5.28%
  [LDL] Median CFB - 20 weeks results: −2.00%
[22]
  [LDL] Mean CFB - 20 weeks results: 7.29%
  [LDL] Median CFB - 20 weeks results: 1.90%
